Data set [1] has as its system Lipid bilayer. Briefly: Binding affinity to POPC/POPS (3:1) LUVs assessed as stabilization of drug peptide's alpha helical signature with CD minima at around 208 and 222 nm and a positive ellipticity below 200 nm at 6.7 uM by CD spectroscopy.
The subject of data set [2] is HeLa. Put plainly: Induction of membrane-remodelling in human HeLa cells assessed as increase in cell internalization of FITC-R8 peptide at 0.25 uM incubated for 30 mins by PI staining based assay. The format is cell membranes.
A short description of data set [3]: Cytotoxicity against human HeLa cells assessed as cell viability at <=1 uM by WST8 assay. It counts as cell-based. The note with it: read-out: Activity. For orientation: Tetrazolium assays rely on reduction of a dye to a coloured formazan, in cell work by metabolically active cells.
Data set [4] relates to Lipid bilayer. Briefly: Induction of membrane-remodelling in DOPE bilayer assessed as phase transition temperature required for conversion of lamellar L-alpha phase to inverted hexagonal HII phase at peptide to lipid molar ratio of 1:100 by solid-state 31P NMR analysis (reference value: 25 degC).
Data set [5] deals with HeLa. Briefly: Induction of membrane-remodelling in human HeLa cells assessed as loosening of the lipid package by measuring decrease in generalized polarization of cell membrane at 0.5 uM incubated for 10 mins by di-4-ANEPPDHQ polarity-sensitive fluorescent membrane probe based confocal microscopic method. It counts as cell membranes.
For data set [6], the system named is HeLa. Briefly: Induction of membrane-remodelling in human HeLa cells assessed as increase in cell internalization of FITC-R8 peptide at 0.5 uM incubated for 30 mins by PI staining based assay relative to control. The format is cell membranes.
The subject of data set [7] is HeLa. Put plainly: Induction of membrane-remodelling in human HeLa cells assessed as increase in cell internalization of FITC-R8 peptide at 1 uM incubated for 30 mins by PI staining based assay. The format is cell membranes.
The subject of data set [8] is HeLa. Briefly: Cytotoxicity against human HeLa cells assessed as proportion of cells with ruptured cell membrane at 1 uM incubated for 30 mins in presence of 10 uM FITC-R8 peptide by propidium iodide staining based assay. The note with it: 0.5 h.

Activity calls are given as the source filed them. The rule behind the calls is not given here. Starred links: 1 amine or outer side, 2 acyl side, 3 side chain; linkers in the order of their positions; H or OH if unused. Positions of bridges follow the written chain, without caps; N, C: chain ends. Non-standard residues stand in square brackets, D forms with d. Chains are numbered I, II in the order given. εLys = N[C@@H](CCCCN[*:1])C(=O)[*:2]; Nle = CCCC[C@H](N)C(=O)O

For the substance “I: H-[Nle]SSLRRQ[Nle]KNIVHNYS[εLys]GKGKG-OH / II: H-[Nle]SSLRRQ[Nle]KNIVHNYS / III: H-[Nle]SSLRRQ[Nle]KNIVHNYS (amide I:19-III:C, I:21-II:C)”, the outcome with Lipid bilayer [1], in the data set on HeLa [2] and in the data set with HeLa [5] was Active. Besides, in data set [3], the viability is > 90%. Moreover, the T with Lipid bilayer [4] was found to be 46 °C. Besides, the Activity in the data set with HeLa [6] was 60%; in the data set on HeLa [8] it was > 10%. The outcome in the data set with HeLa [7] was inactive.

The record behind these values is ChEMBL document CHEMBL4619748, “Enhancing the activity of membrane remodeling epsin-peptide by trimerization” (Bioorg Med Chem Lett, 2020).
